# In patent US7364874B2, “Mediucm for detecting Van A and Van B vancomycin-resistant entercocci and method of using the same” (priority 2001, dated 2008):
# Like-named read-outs stand apart in the source and are kept apart here.
# Assays:
# [1] = tested on: Enterococcus faecium that does not carry vancomycine resistance genes; experiment: Test Example 2: vancomycin MIC changes when D-lactic acid (DL-sodium lactate) is added (checkerboard method); assay type: cell-based; settings: DL-sodium lactate 0.025-[…]
# [2] = tested on: Enterococcus faecalis that does not carry vancomycine resistance genes (incl. ATCC29212); experiment: as above; assay type: cell-based; settings: DL-sodium lactate 0.025-[…]
# Van A VRE [3] = experiment: as above; assay type: cell-based, E. faecium
# [4] = tested on: Van C type, Enterococcus gallinarum; experiment: as above; assay type: cell-based
# Van B VRE [5] = experiment: as above; assay type: cell-based, E. faecium, E. faecalis
# [6] = tested on: Enterococcus avium that does not carry vancomycine resistance genes; experiment: as above; assay type: cell-based; settings: DL-sodium lactate 0.025-[…]
# [7] = tested on: Van C type, Enterococcus casseliflavus; experiment: as above; assay type: cell-based
# Van D VRE = settings: cited from earlier work
# Van A VRE [8] = experiment: microbe, parasite or virus in culture; assay type: cell-based, E. faecium; settings: Enterococcus, read-out: vancomycin MIC
# [9] = tested on: Van C type, Enterococcus casseliflavus; experiment: microbe, parasite or virus in culture; settings: read-out: vancomycin MIC, with addition of D-cycloserine, all strains of the group
# Van B VRE [10] = experiment: microbe, parasite or virus in culture; assay type: cell-based, E. faecium, E. faecalis; settings: Enterococcus, read-out: vancomycin MIC
# Van G VRE = settings: cited from earlier work
# [11] = tested on: Van C type, Enterococcus gallinarum; experiment: microbe, parasite or virus in culture; settings: read-out: vancomycin MIC, with addition of D-cycloserine, all strains of the group
# Van C VRE = settings: cited from earlier work
# Van E VRE = settings: cited from earlier work
# Van B VRE [12] = settings: carries van B gene; cited from earlier work
# Van A VRE [13] = settings: carries van A gene; cited from earlier work
# [14] = Enterococcus, VRE, read-out: vancomycin MIC
compound,measurement,setting,value
CC(O)C(=O)[O-].[Na+] (racemic) [DL-sodium lactate],effect of the addition of DL-sodium lactate on the vancomycin MIC,[1],did not change the vancomycin MIC
same,effect of the addition of DL-sodium lactate on the vancomycin MIC,[2],did not change the vancomycin MIC
same,effect of the addition of DL-sodium lactate on the vancomycin MIC,"Van A VRE [3]; DL-sodium lactate 0.025-[…], 5 strains",increased the vancomycin MIC or maintained the vancomycin MIC as high as more than 512 μg/ml
same,effect of the addition of DL-sodium lactate on the vancomycin MIC,[4]; DL-sodium lactate 0.025-[…],The addition of DL-sodium lactate did not change the vancomycin
same,optimum concentration of addition of DL-sodium lactate,Van B VRE [5]; for increasing the vancomycin MIC,0.2 mol/L
same,concentration of DL-sodium lactate at which the organisms tend to grow worse,Van B VRE [5]; growth worse in line with the added amount,more than 0.4 mol/l
same,effect of the addition of DL-sodium lactate on the vancomycin MIC,[6],did not change the vancomycin MIC
same,effect of the addition of DL-sodium lactate on the vancomycin MIC,[7]; DL-sodium lactate 0.025-[…],The addition of DL-sodium lactate did not change the vancomycin
CN[C@H](CC(C)C)C(=O)N[C@H]1C(=O)N[C@@H](CC(N)=O)C(=O)N[C@H]2C(=O)N[C@H]3C(=O)N[C@H](C(=O)N[C@H](C(=O)O)c4cc(O)cc(O)c4-c4cc3ccc4O)[C@H](O)c3ccc(c(Cl)c3)Oc3cc2cc(c3O[C@@H]2O[C@H](CO)[C@@H](O)[C@H](O)[C@H]2O[C@H]2C[C@](C)(N)[C@H](O)[C@H](C)O2)Oc2ccc(cc2Cl)[C@H]1O [vancomycin],minimum inhibitory concentration (MIC),Van D VRE,64 to 1024 µg/mL
same,MIC,Van A VRE [8],> 32 µg/mL
same,MIC,[9],< 32 µg/mL
same,MIC,Van B VRE [10],> 32 µg/mL
same,minimum inhibitory concentration (MIC),Van G VRE,12 to 16 µg/mL
same,MIC,[11],< 32 µg/mL
same,minimum inhibitory concentration (MIC),Van C VRE,2 to 32 µg/mL
same,MIC,Van A VRE [3]; [14],> 32 µg/mL
same,MIC,"[4]; Enterococcus gallinarum, GALLINARUM, read-out: vancomycin MIC, with addition of DL-sodium lactate, all strains of the group",< 32 µg/mL
same,MIC,Van B VRE [5]; [14],> 32 µg/mL
same,minimum inhibitory concentration (MIC),Van E VRE,16 µg/mL
same,MIC,"[7]; Enterococcus casseliflavus, read-out: vancomycin MIC, with addition of DL-sodium lactate, all strains of the group",< 32 µg/mL
teicoplanin,minimum inhibitory concentration (MIC),Van D VRE; carries van D gene,4 to 1024 µg/mL
same,minimum inhibitory concentration (MIC),Van G VRE; carries van G gene,0.5 µg/mL
same,minimum inhibitory concentration (MIC),Van C VRE; carries van C gene,0.5 to 1 µg/mL
same,minimum inhibitory concentration (MIC),Van B VRE [12],0.5 to 1 µg/mL
same,minimum inhibitory concentration (MIC),Van A VRE [13],16 to 512 µg/mL
same,minimum inhibitory concentration (MIC),Van E VRE; carries van E gene,0.5 µg/mL
